Measured values: patent US20230339977A1, “SUBSTITUTED HETEROARYL COMPOUND, AND COMPOSITION AND APPLICATION THEREOF” (SUNSHINE LAKE PHARMA CO., LTD., priority 2020, published 2023)
Like-named read-outs stand apart in the source and are kept apart here.

Experiments:
[1] = Stability in human liver microsomes; type: in vitro ADME
Protocol: (§1) The stability of the compounds of the present invention in human and rat liver microsomes can be tested by the following two methods:
(§2) Human or rat liver microsomes were incubated in polypropylene tubes in duplicate wells. A typical incubation mixture included human or rat liver microsomes (0.5 mg protein/mL), target compound (5 µM), and a total volume of 200 µL of NADPH (1.0 mM) potassium phosphate buffer (PBS, 100 mM, pH 7.4), the compound was dissolved in DMSO and diluted with PBS, the final concentration of the DMSO solution was 0.05%. Human or rat liver microsomes were incubated at 37° C. in an air-connected water bath. After pre-incubation for 3 minutes, […] was added to start the reaction. The same volume of ice-cold acetonitrile was added to terminate the reaction at different time points (0, 5, 10, 15, 30 and 60 min). Samples were stored at -80° C. until LC/MS/MS analysis.
(§3) The linear concentration range of each target compound was determined, and then, the concentration of the target compounds in the human or rat liver microsomes incubation mixture was determined by LC/MS/MS method.
(§4) Parallel incubations were performed using denatured microsomes as a negative control and dextromethorphan (70 µM) as a positive control. Negative control was incubated at 37° C., the reaction was terminated at different time points (0, 15 and 60 minutes); positive control was incubated at 37° C., the reaction was terminated at different time points (0, 5, 10, 15, 30 and 60 minutes). Positive and negative control samples were used in each assay to ensure the integrity of the microsomal incubation system.
(§5) In addition, the stability data of the compounds of the present invention in human or rat liver microsomes can also be obtained from the following tests:
(§6) Human or rat liver microsomes were incubated in polypropylene tubes in duplicate wells. A typical incubation mixture included human or rat liver microsomes (final concentration: 0.5 mg protein/mL), target compound (final concentration: 1.5 µM) and a total volume of 30 µL of K-buffer solution (containing 1.0 mM EDTA, 100 mM, pH 7.4). Compounds were dissolved in DMSO and diluted with K-buffer solution, the final concentration of DMSO was 0.2%. […]
(§7) For each reaction, in vivo intrinsic hepatic clearance CLint is extrapolated by plotting the compound concentration (expressed as a percentage) in human or rat liver microsomal incubations as a percentage relative to time zero (ref.: Naritomi Y, Terashita S, Kimura S, Suzuki A, Kagayama A, Sugiyama Y. Prediction of human hepatic clearance from in vivo animal experiments and in vitro metabolic studies with liver microsomes from animals and humans. Drug Metabolism and Disposition 2001, 29: 1316-1324.).

[2] = Stability in rat liver microsomes; type: in vitro ADME
Protocol: as §1, §2, §3, §4, §5, §6, §7

[3] = Pharmacokinetic evaluation in rats after intravenous injection and oral administration; type: in vivo; details: rat, plasma; for AUC(0-t): read-out: PK AUClast; for Cmax: read-out: PK Cmax; for half-life: read-out: PK T½ (converted)
Protocol: The analytical LC/MS/MS system includes an Agilent 1200 series vacuum degasser, a binary syringe pump, an orifice plate autosampler, a column oven, and an Agilent G6430 triple quadrupole mass spectrometer with an electrospray ionization (ESI) source.
Agilent XDB-C18, 2.1 × 30 mm, 3.5 µM column was used to analysis, 5 µL sample was injected. Analytical conditions: Mobile phases were 0.1% formic acid in water (A) and 0.1% formic acid in methanol (B). The flow rate was 0.4 mL/min.
In addition, Agilent 6330 series LC/MS/MS spectrometer was used for analysis, equipped with G1312A binary syringe pump, G1367A automatic sampler and G1314C UV detector; LC/MS/MS spectrometer used ESI radiation source. Optimum analysis was achieved using standards with appropriate cation model processing and MRM conversion for each analyte. A Capcell MP-C18 column, 100 × 4.6 mm I.D., 5 µM (Phenomenex, Torrance, California, USA) was used during the analysis. Mobile phase was 5 mM ammonium acetate, 0.1% methanol in water (A): 5 mM ammonium acetate, 0.1% methanol in acetonitrile (B) (70/30, v/v); flow rate was 0.6 mL/min; column temperature was maintained at room temperature; 20 µL of sample was injected.
The present invention evaluates the pharmacokinetic studies of the compounds of the present invention in mice, rats, dogs or monkeys. The compounds of the present invention were administered in the form of aqueous solution or 2% HPMC + 1% Tween-80 aqueous solution, 5% DMSO + 5% saline solution, 4% MC or capsule. For intravenous administration, animals were dosed at about 0.5, 0.6, 1 or 2 mg/kg. The oral doses (p.o.) were 5 or 10 mg/kg for rats and mice, and 10 mg/kg for dogs and monkeys. Bloods (0.3 mL) were taken at time points 0.25, 0.5, 1.0, 2.0, 3.0, 4.0, 6.0, 8.0, 12 and 24 h and centrifuged at 3,000 or 4,000 rpm for 10 min. Plasma solutions were collected and stored at -20° C. or -70° C. until LC/MS/MS analysis as described above. […] Table 2 is the experimental results of the pharmacokinetic characteristics of the compounds provided in the examples of the present invention in rats.

P-STAT3 = test: Effect of TYK2 inhibitor on P-STAT3 expression in PBMC induced by IFN-α (Table 3, P-STAT3 (h)); type: cell-based; details: Homo sapiens; P-STAT3 by ELISA, PBMC stimulated with IFN-α 5000 U/mL
Protocol: Whole blood was collected from healthy subjects, anticoagulated with heparin sodium, and PBMC (human peripheral blood mononuclear cells) were extracted. PBMC were seeded in 96-well culture plates at a density of 1*106/well. The initial concentration of the positive drug BMS986165 was 1000 nM, after diluting 10 times, the positive drug BMS986165 was diluted 8 concentrations by 3 times; the concentration of the other tested compounds was 333 nM. Positive wells and negative wells were added with the same volume of DMSO as the compound, and the final concentration of DMSO was 0.5%. After the compound was added, the cells were incubated at 37° C. for 1 h, and then stimulated by the addition of IFN-α at a final concentration of 5000 U/mL. An equal volume of medium was added to the negative wells and incubated for 15 min. The cells were centrifuged to remove the supernatant, and lysed, and the P-STAT3 was measured according to the instructions of the ELISA kit, the absorbance was read at 450 nm, and the IC50 value or inhibition rate was calculated.
CTLL-2, P-STAT3 and TF-1 cells were seeded in a 96-well culture plate at a density of 20,000/well with 90 µL per well, and the blank well was an equal amount of complete medium. […]

CTLL-2 cells = test: Inhibitory effect on CTLL-2 cell proliferation; type: cell-based; details: alamar blue, read-out: IC50 (nM) CTLL-2 (h)
Protocol: CTLL-2, P-STAT3 and TF-1 cells were seeded in a 96-well culture plate at a density of 20,000/well with 90 µL per well, and the blank well was an equal amount of complete medium. 10 ul of different compound dilutions were added to each plate row BC, DE, and FG, and 5% DMSO medium with equal volume of the compound was added to positive wells and negative wells, and the final concentration of DMSO was 0.5%. After incubating in a 37° C. incubator for 20 h, alamar blue was added, the plate was incubated for 4 h, the fluorescence intensity of each well under the conditions of […], 580 nm wavelength was measured, and the IC50 value was calculated.

TF-1 cells = test: Inhibitory effect on TF-1 cell proliferation; type: cell-based; details: Homo sapiens, alamar blue, read-out: IC50 (nM) TF-1 (h)
Protocol: TF-1 cells were seeded in a 96-well culture plate at a density of 20,000/well with 80 µL per well, the blank well was an equal amount of complete medium, and 10 µL of the compound dilution solution was added to the 96-well plate B1-11, C1-11, E1-11, F1-11, positive and negative wells were added with 5% DMSO medium equal to the volume of the compound, and the final concentration of DMSO was 0.5%. After 30 min, GM-CSF with a final concentration of 2 ng/mL was added to rows B, C, and D (positive wells), and the remaining wells (rows E, F, and G) were added with the same volume of medium as cytokines (negative wells). After incubation for 44 h at 37° C. in 5% CO2, alamar blue was added, the plate was incubated for 4 h, the fluorescence intensity of each well under the conditions of […], 580 nm wavelength was measured, and the IC50 value was calculated.
CTLL-2, P-STAT3 and TF-1 cells were seeded in a 96-well culture plate at a density of 20,000/well with 90 µL per well, and the blank well was an equal amount of complete medium. 10 ul of different compound dilutions were added to each plate row BC, DE, and FG, and 5% DMSO medium with equal volume of the compound was added to positive wells and negative wells, and the final concentration of DMSO was 0.5%. […]

JAK1/TYK2 = test: Cell level activity test of JAK1/TYK2 (IFN-α induced STAT3 phosphorylation in PBMC); type: cell-based; details: Homo sapiens; P-STAT3 by ELISA in PBMC, compound 1 h, IFN-α 5000 U/mL 15 min; read-out: IC50 nM (JAK 1 /TYK2)
Protocol: IFN-α can induce the phosphorylation of STAT3 downstream of JAK1/TYK2 in PBMC, and by measuring the level of STAT3 phosphorylation, the activity of the compound on JAK1/TYK2 at the cell level can be reflected.
Whole blood was collected from healthy subjects, anticoagulated with heparin sodium, and PBMC (human peripheral blood mononuclear cells) were extracted. PBMC were seeded in a 96-well culture plates at a density of 1*106/well. Positive wells and negative wells were added with the same volume of DMSO as the compound, and the final concentration of DMSO was 0.5%. The compounds were incubated with the cells at 37° C. for 1 h, and then stimulated by adding IFN-α at a final concentration of 5000 U/mL, an equal volume of medium was added to the negative wells, and incubated for 15 min. The cells were centrifuged to remove the supernatant, then lysed, and P-STAT3 was measured according to the instructions of the ELISA kit, the absorbance was read at 450 nm, and the IC50 value or inhibition rate was calculated.

[4] = pH 7.4, in vivo intrinsic hepatic clearance extrapolated

Structure (SMILES)	half-life ([1]; human, pH 7.4, read-out: Human T½)	CLint scaled [1, 4]	CLint scaled [2, 4]	half-life ([2]; rat, pH 7.4, read-out: Rat T½)	AUC(0-t) ([3]; IV 1 mg/kg)	Cmax ([3]; IV 1 mg/kg)	half-life ([3]; IV 1 mg/kg)	AUC(0-t) ([3]; PO 5 mg/kg)	Cmax ([3]; PO 5 mg/kg)	half-life ([3]; PO 5 mg/kg)	bioavailability ([3]; oral bioavailability, PO 5 mg/kg)	IC50 (P-STAT3)	IC50 (CTLL-2 cells)	IC50 (TF-1 cells)	IC50 (JAK1/TYK2)
COc1cc(-c2cn(C)c3cnc(NC(C)=O)cc23)nc2c1COC21CCOC1 (stereo not drawn) [Example 1, N-(3-(4′-methoxy-4,5-dihydro-2H,5′H-spiro[furan-3,7′-furo[3,4-b]pyridin]-2′ -yl)-1-methyl-1H-pyrrolo[2,3-c]pyridin-5-yl)acetamide]	1.92 h	15.1 mL/min/kg	16.2 mL/min/kg	2.56 h	1650 ng·h/mL	1170 ng/mL	1.24 h	8810 ng·h/mL	2650 ng/mL	3.11 h	107%				
CC(=O)Nc1cc2c(-c3ccc4c(n3)C3(CCOC3)OCC4)cn(C)c2cn1 (stereo not drawn) [Example 3, N-(1-Methyl-3-(4,5,5′,6′-Tetrahydro-2H-Spiro[Furan-3,8′-Pyrano[3,4-b]Pyridine]-2′-yl)-1H-Pyrrolo[2,3-c]Pyridin-5-yl)Acetamide]												21.4 nM	> 10000 nM	5290 nM	21.4 nM
